Drawing on patent publication US20240336601A1 (Chulalongkorn University, priority 2020, published 2024), this text covers IC50 for 26 compounds.

Each structure is given as a SMILES string. pIC50: −log10 of the molar value.

In the first assay the target is interaction between PD-1 and PD-L1 (Homo sapiens, UniProt Q9NZQ7). Nature of the assay: PD-1/PD-L1 protein-protein interaction assay (ALPHA). The assay is classed as binding. The settings on record: 2 nM His-tagged human PD-L1, 0.6 nM PD-1-Fc, AlphaScreen.
Sequence of interaction between PD-1 and PD-L1 (Q9NZQ7 19-238 limits assumed): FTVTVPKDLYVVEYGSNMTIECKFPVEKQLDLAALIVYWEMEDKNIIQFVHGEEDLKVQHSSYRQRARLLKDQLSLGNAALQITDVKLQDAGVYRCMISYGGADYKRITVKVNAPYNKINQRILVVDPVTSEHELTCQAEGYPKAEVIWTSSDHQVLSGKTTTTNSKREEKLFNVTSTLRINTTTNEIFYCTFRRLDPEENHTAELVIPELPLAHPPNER
Description: PD-1′PD-L1 Protein-Protein Interaction Assay
Amplified Luminescent Proximity Homogeneous Assay (ALPHA) platform was used to evaluate the ability of the compounds to block the interaction between PD-1 and PD-L1. The assays were performed in half volume white 96-well plate in a final volume of 40 μl. Compounds at various concentrations were preincubated with 2 nM His tagged recombinant human PD-L1 protein and 0.6 nM recombinant PD-1 protein with Fc-tag (both reagents were purchased from AcroBiosystems) for 40 minutes. After the preincubation, 20 μg/mL of Alphascreen Ni chelate donor beads (PerkinElmer, USA) and Protein A acceptor beads (PerkinElmer, USA) were added into the well and incubated under reduced light at 25° C. for 120 minutes. The signal was measured with the EnSight Multimode Plate Reader. IC50 values were calculated from the four-parameter logistic curve fit.
`COc1cc(-n2ccc3c(-c4ccc5c(c4)OCCO5)cccc32)cc(OC)c1CNC(C)(CO)C(=O)O` (centres unmarked) [Example 1, 2-((4-(4-(2,3-dihydrobenzo[b][1,4]dioxin-6-yl)-1H-indol-1-yl)-2,6-dimethoxybenzyl)amino)-3-hydroxy-2-methylpropanoic acid] had a pIC50 of 7.00 to 8.00.
Still for that read-out and setting: then `COc1cc(-n2ccc3c(-c4ccc5c(c4)OCCO5)cccc32)cc(OC)c1CN1C[C@H](O)C[C@@H]1C(=O)O` [Example 2, (2R,4R)-1-(4-(4-(2,3-dihydrobenzo[b][1,4]dioxin-6-yl)-1H-indol-1-yl)-2,6-dimethoxybenzyl)-4-hydroxypyrrolidine-2-carboxylic acid], with < 7.00.
The same measure, in the same setting: with `COc1cc(-n2ccc3c(-c4ccc5c(c4)OCCO5)cccc32)cc(OC)c1CNCCNC(C)=O` [Example 3, N-(2-((4-(4-(2,3-dihydrobenzo[b][1,4]dioxin-6-yl)-1H-indol-1-yl)-2,6-dimethoxybenzyl)amino)ethyl)acetamide] the figure was < 7.00; with `CC(CO)(NCc1ccc(-n2ccc3c(-c4ccc5c(c4)OCCO5)cccc32)cc1OCc1cccc(C#N)c1)C(=O)O` (centres unmarked) [Example 5, 2-((2-((3-cyanobenzyl)oxy)-4-(4-(2,3-dihydrobenzo[b][1,4]dioxin-6-yl)-1H-indol-1-yl)benzyl)amino)-3-hydroxy-2-methylpropanoic acid], < 7.00; with `N#Cc1cccc(COc2cc(-n3ccc4c(-c5ccc6c(c5)OCCO6)cccc43)ccc2CNCCO)c1` [Example 6, 3-((5-(4-(2,3-dihydrobenzo[b][1,4]dioxin-6-yl)-1H-indol-1-yl)-2-(((2-hydroxyethyl)amino)methyl)phenoxy)methyl)benzonitrile], < 7.00.
On the same count and under the same terms, with `COc1cc(C(=O)n2ccc3c(-c4ccc5c(c4)OCCO5)cccc32)cc(OC)c1CNC(C)(CO)C(=O)O` (centres unmarked) [Example 7, 2-((4-(4-(2,3-dihydrobenzo[b][1,4]dioxin-6-yl)-1H-indole-1-carbonyl)-2,6-dimethoxybenzyl)amino)-3-hydroxy-2-methylpropanoic acid] the figure was < 7.00; with `O=C(O)[C@H](CO)NCc1ccc(-n2ccc3c(-c4ccc5c(c4)OCCO5)cccc32)nc1` [Example 9], < 7.00.
For the compound `COc1nc(-n2ccc3c(-c4ccc5c(c4)OCCO5)cccc32)ccc1CN[C@@H](CO)C(=O)O` [Example 10], the pIC50 was < 7.00.
Regarding `COc1nc(-n2ccc3c(-c4ccc5c(c4)OCCO5)cccc32)ccc1CN1CC(C)(O)C1` [Example 12, ((6-(4-(2,3-dihydrobenzo[b][1,4]dioxin-6-yl)-1H-indol-1-yl)~2~methoxypyridin-3-yl)methyl)-L-serine], the pIC50 is < 7.00.
Same read-out and setting: then `COc1cc(-n2ccc3c(-c4ccc5c(c4)OCCO5)cccc32)cc(OC)c1CNC1CNC(=O)C1` (centres unmarked) [Example 16], with < 7.00; and `COc1cc(CNC[C@@H]2CCC(=O)N2)cc(-n2ccc3c(-c4ccc5c(c4)OCCO5)cccc32)c1` [Example 19], with < 7.00; and `COc1cc(-c2cn(C)c3c(-c4ccc5c(c4)OCCO5)cccc23)cc(OC)c1CNC[C@@H]1CCC(=O)N1` [Example 23], with 7.00 to 8.00.
The same measure, in the same setting: then `COc1cc(-c2c[nH]c3c(-c4ccc5c(c4)OCCO5)cccc23)cc(OC)c1CNC[C@@H]1CCC(=O)N1` [Example 24], with < 7.00; and `Cn1cc(-n2ccc3c(-c4ccc5c(c4)OCCO5)cccc32)c2ncc(CNCC(C)(C)C(=O)O)cc21` [Example 25], with < 7.00; and `COc1cc(-n2ccc3c(-c4cccc(-c5ccc(CN6CC(C)(O)C6)c(OC)n5)c4Cl)cccc32)cc(OC)c1CN1CC(C)(O)C1` [Example 28], with 8.00 to 9.00.
The same measure, in the same setting: with `COc1cc(-n2ccc3c(-c4cccc(-c5ccc(CN6CC7(C6)CN(C(C)=O)C7)c(OC)n5)c4Cl)cccc32)cc(OC)c1CNC[C@@H]1CCC(=O)N1` [Example 32] the figure was 8.00 to 9.00.
Consider `COc1cc(-n2ccc3c(-c4cccc(NC(=O)c5ccc(CNC(C)(CO)C(=O)O)cc5)c4C)cccc32)cc(OC)c1CNC(C)(CO)C(=O)O` (centres unmarked) [Example 56, 2-((4-((3-(1-(4-(((2-carboxy-1-hydroxypropan-2-yl)amino)methyl)-3,5-dimethoxyphenyl)-1H-indol-4-yl)-2-methylphenyl)carbamoyl)benzyl)amino)-3-hydroxy-2-methylpropanoic acid], for which the pIC50 was < 7.00.
Same read-out and setting: then `Cn1c(CN[C@@H](CO)C(=O)O)cc2ccc(-n3ccc4c(-c5ccc6c(c5)OCCO6)cccc43)cc21` [Example 57, (S)-2-(((4-(2,3-dihydrobenzo[b][1,4]dioxin-6-yl)-1′-methyl-1′H-[1,6′-biindol]-2′-yl)methyl)amino)-3-hydroxypropanoic acid], with < 7.00; and `COc1nc(-n2ccc3c(-c4ccc5c(c4)OCCO5)cccc32)ccc1CN1CC2(C1)CN(C(C)=O)C2` [Example 58, 1-(6-((6-(4-(2,3-dihydrobenzo[b][1,4]dioxin-6-yl)-1H-indol-1-yl)-2-methoxypyridin-3-yl)methyl)-2,6-diazaspiro[3.3]heptan-2-yl)ethanone], with < 7.00; and `c1cc(-c2ccc3c(c2)OCCO3)c2ccn(-c3nc4c(s3)CNCC4)c2c1` [Example 59, 2-(4-(2,3-dihydrobenzo[b] [1,4]dioxin-6-yl)-1H-indol-1-yl)-4,5,6,7-tetrahydrothiazolo[5,4-c]pyridine], with < 7.00.
Still for that read-out and setting: with `COc1nc(-n2ccc3c(-c4ccc5c(c4)OCCO5)cccc32)cnc1CNC[C@@H]1CCC(=O)N1` [Example 60] the figure was < 7.00; with `COc1cc(-n2ccc3c(-c4ccc5c(c4)OCCO5)cccc32)cnc1CNC[C@@H]1CCC(=O)N1` [Example 61, (S)-5-((((5-(4-(2,3-dihydrobenzo[b][1,4]dioxin-6-yl)-1H-indol-1-yl)-3-methoxypyridin-2-yl)methyl)amino)methyl)pyrrolidin-2-one], < 7.00.
Regarding `Cc1nn(CCNC[C@@H]2CCC(=O)N2)c2ccc(-n3ccc4c(-c5ccc6c(c5)OCCO6)cccc43)cc12` [Example 62, (S)-5-(((2-(5-(4-(2,3-dihydrobenzo[b] [1,4]dioxin-6-yl)-1H-indol-1-yl)-3-methyl-1H-indazol-1-yl)ethyl)amino)methyl)pyrrolidin-2-one], the pIC50 is < 7.00.
With `Cc1cc2cc(CNC[C@@H]3CCC(=O)N3)cnc2c(-n2ccc3c(-c4ccc5c(c4)OCCO5)cccc32)n1` [Example 63, (S)-5-((((8-(4-(2,3-dihydrobenzo[b][1,4]dioxin-6-yl)-1H-indol-1-yl)-6-methyl-1,7-naphthyridin-3-yl)methyl)amino)methyl)pyrrolidin-2-one], the negative logarithm of the IC50 (pIC50) was < 7.00.
Same read-out and setting: then `COc1nc(N2CCc3c(-c4ccc5c(c4)OCCO5)cccc32)ccc1CNC[C@@H]1CCC(=O)N1` [Example 80, (S)-5-((((6-(4-(2,3-dihydrobenzo[b][1,4]dioxin-6-yl)indolin-1-yl)-2-methoxypyridin-3-yl)methyl)amino)methyl)pyrrolidin-2-one], with < 7.00; and `Cc1cc(CN2CC(C)(C(=O)O)C2)cc(-n2ccc3c(-c4ccc5c(c4)OCCO5)cccc32)n1` [Example 86, 1-((2-(4-(2,3-dihydrobenzo[b][1,4]dioxin-6-yl)-1H-indol-1-yl)-6-methylpyridin-4-yl)methyl)-3-methylazetidine-3-carboxylic acid], with < 7.00.

The target in the next assay is T1, PD-1/PD-L1 interaction (Homo sapiens, UniProt Q9NZQ7).
T1 construct: expressed in transfected cells
T1 sequence (Q9NZQ7 19-290): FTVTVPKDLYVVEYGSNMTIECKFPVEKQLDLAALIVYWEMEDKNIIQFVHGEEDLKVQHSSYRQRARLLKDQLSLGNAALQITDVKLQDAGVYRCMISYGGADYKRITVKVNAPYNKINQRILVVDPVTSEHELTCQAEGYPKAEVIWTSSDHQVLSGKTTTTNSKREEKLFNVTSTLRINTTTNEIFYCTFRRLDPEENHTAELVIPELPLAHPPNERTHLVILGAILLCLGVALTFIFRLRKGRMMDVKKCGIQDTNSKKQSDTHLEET
Description: PD-1/PD-L1 blockage cell-based bioassay (Jurkat NFAT luciferase / CHO-PDL1 co-culture). The settings on record: Jurkat NFAT cells co-cultured with CHO-PDL1 cells, 6 h, luminescence.
Description: PD-1/PD-L1 Blockage Cell-Based Bioassay
Jurkat T cells expressing human PD-1 and luciferase gene reporter driven by TCR-mediated NFAT response element (Jurkat NFAT) were co-cultured with CHO-kl cells expressing human PD-L1 and surface-bound TCR activator (CHO-PDL1). […] CHO-PDL1 cells (20,000 cells/well) were seeded overnight. Compounds were added on CHO-PDL1 and incubated for 2 h at 37° C. Jurkat NFAT cells (20,000 cells/well) were diluted in RPMI assay medium (RPMI1640 with 1% FBS) and added into each well. After co-incubation for 6 h at 37° C., luminescence was determined by adding Bio-Glo™ Luciferase reagent (Promega) and measured with a luminescence plate reader. EC50 values were calculated from the four-parameter concentration-response curves.
Take `COc1cc(-n2ccc3c(-c4ccc5c(c4)OCCO5)cccc32)cc(OC)c1CNC(C)(CO)C(=O)O` (centres unmarked) [Example 1, 2-((4-(4-(2,3-dihydrobenzo[b][1,4]dioxin-6-yl)-1H-indol-1-yl)-2,6-dimethoxybenzyl)amino)-3-hydroxy-2-methylpropanoic acid]: the pIC50 was < 5.70.
With `COc1cc(-n2ccc3c(-c4cccc(-c5ccc(CN6CC(C)(O)C6)c(OC)n5)c4Cl)cccc32)cc(OC)c1CN1CC(C)(O)C1` [Example 28], the pIC50 is < 5.70.
Same read-out and setting: with `COc1cc(-n2ccc3c(-c4cccc(-c5ccc(CN6CC7(C6)CN(C(C)=O)C7)c(OC)n5)c4Cl)cccc32)cc(OC)c1CNC[C@@H]1CCC(=O)N1` [Example 32] the figure was < 5.70.

For orientation: pIC50 means −log10 of the IC50, conventionally taken in molar units. Read a low pIC50 as a high IC50.
